What was measured:
Assay type in all cases: biochemical
SYK = SYK (Homo sapiens, UniProt P43405); experiment: SYK enzyme assay, coupled enzyme assay; settings: 200 μM ATP, 4 μM poly Gly-Tyr peptide, 30° C.
Protocol: Compounds were screened for their ability to inhibit SYK using a standard coupled enzyme assay (Fox et al., Protein Sci. 1998, 7, 2249). Reactions were carried out in 100 mM HEPES (pH 7.5), 10 mM MgCl2, 25 mM NaCl, 1 mM DTT and 1.5% DMSO. Final substrate concentrations in the assay were 200 μM ATP (Sigma chemical Co.) and 4 μM poly Gly-Tyr peptide (Sigma Chemical Co.). Assays were carried out at 30° C. and 200 nM SYK. Final concentrations of the components of the coupled enzyme system were 2.5 mM phosphoenolpyruvate, 300 μM NADH, 30 μg/ml pyruvate kinase and 10 μg/ml lactate dehydrogenase.
An assay stock buffer solution was prepared containing all of the reagents listed above, with the exception of SYK, DTT, and the test compound of interest of the present invention. 56 μl of the test reaction was placed in a 96 well plate followed by the addition of 1 μl of 2 mM DMSO stock containing the test compound of the present invnetion (final compound concentration 30 μM). The plate was pre-incubated for ˜10 minutes at 30° C. and the reaction initiated by the addition of 10 μl of enzyme (final concentration 25 nM). Rates of reaction were obtained using a BioRad Ultramark plate reader (Hercules, Calif.) over a 5 minute read time at 30° C., and Ki values for the compounds of the present invention were determined according to standard methods.

c-Met = c-Met (Homo sapiens, UniProt P08581); experiment: Ki determination for the inhibition of c-Met, coupled enzyme system; settings: 200 μM ATP, 10 μM polyGluTyr, 80 nM c-Met, 30° C.
Sequence of c-Met (P08581 25-1390): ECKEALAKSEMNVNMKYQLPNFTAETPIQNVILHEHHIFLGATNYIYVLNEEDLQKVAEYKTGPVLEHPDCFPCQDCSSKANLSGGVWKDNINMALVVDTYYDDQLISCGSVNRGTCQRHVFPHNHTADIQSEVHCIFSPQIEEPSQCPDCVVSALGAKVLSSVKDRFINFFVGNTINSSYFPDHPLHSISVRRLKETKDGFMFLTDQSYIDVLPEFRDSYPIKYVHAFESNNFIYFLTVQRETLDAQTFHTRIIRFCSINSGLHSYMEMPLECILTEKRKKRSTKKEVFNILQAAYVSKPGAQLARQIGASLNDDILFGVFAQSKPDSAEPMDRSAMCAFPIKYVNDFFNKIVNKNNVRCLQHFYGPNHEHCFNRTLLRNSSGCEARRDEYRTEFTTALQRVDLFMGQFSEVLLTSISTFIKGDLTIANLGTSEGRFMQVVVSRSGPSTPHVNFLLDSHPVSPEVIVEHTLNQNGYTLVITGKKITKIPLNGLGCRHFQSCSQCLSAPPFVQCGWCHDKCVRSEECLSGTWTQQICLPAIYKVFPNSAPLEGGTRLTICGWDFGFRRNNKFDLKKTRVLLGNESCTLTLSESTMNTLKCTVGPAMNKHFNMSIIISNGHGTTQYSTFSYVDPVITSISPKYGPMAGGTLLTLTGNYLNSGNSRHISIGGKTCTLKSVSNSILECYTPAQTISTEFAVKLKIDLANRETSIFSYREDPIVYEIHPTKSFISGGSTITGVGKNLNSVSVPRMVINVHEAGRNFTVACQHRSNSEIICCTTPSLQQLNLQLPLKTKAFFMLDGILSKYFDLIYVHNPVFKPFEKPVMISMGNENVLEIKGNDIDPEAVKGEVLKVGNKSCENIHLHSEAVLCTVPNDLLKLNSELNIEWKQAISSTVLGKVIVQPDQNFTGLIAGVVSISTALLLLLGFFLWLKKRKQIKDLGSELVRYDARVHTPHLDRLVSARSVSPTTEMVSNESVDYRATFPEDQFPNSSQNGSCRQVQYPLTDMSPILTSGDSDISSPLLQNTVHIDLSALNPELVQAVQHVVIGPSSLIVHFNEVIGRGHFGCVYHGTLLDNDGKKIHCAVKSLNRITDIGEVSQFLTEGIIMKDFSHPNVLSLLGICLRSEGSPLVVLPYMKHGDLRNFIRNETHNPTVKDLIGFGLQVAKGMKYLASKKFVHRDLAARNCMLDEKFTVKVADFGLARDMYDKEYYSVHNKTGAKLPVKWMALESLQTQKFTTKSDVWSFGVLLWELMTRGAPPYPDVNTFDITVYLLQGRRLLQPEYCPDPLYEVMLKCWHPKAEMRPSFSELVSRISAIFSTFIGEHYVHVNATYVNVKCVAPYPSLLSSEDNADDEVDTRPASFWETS
Protocol: Compounds were screened for their ability to inhibit c-Met kinase activity using a standard coupled enzyme system (Fox et al., Protein Sci. 1998, 7, 2249). Reactions were carried out in a solution containing 100 mM HEPES (pH 7.5), 10 mM MgCl2, 25 mM NaCl, 300 μM NADH, 1 mM DTT, and 1.5% DMSO. Final substrate concentrations in the assay were 200 μM ATP (Sigma Chemicals, St Louis, Mo.) and 10 μM polyGluTyr (Sigma Chemical Company, St. Louis). Reactions were carried out at 30° C. and 80 nM c-Met. Final concentrations of the components of the coupled enzyme system were 2.5 mM phosphoenolpyruvate, 300 μM NADH, 30 μg/ml pyruvate kinase and 10 μg/ml lactate dehydrogenase.
An assay stock buffer solution was prepared containing all of the reagents listed above with the exception of ATP and a test compound of the present invention. The assay stock buffer solution (175 μl) was incubated in a 96 well plate with 5 μl of the test compound of the present invention at final concentrations spanning 0.006 μM to 12.5 μM at 30° C. for 10 minutes. Typically, a 12-point titration was conducted by preparing serial dilutions (from 10 mM compound stocks) with DMSO of the test compounds of the present invention in daughter plates. The reaction was initiated by the addition of 20 μl of ATP (final concentration 200 μM). Rates of reaction were obtained using a Molecular Devices Spectramax plate reader (Sunnyvale, Calif.) over 10 minutes at 30° C. The Ki values were determined from the rate data as a function of inhibitor concentration.

GSK-3β, (AA 1-420) = GSK-3β, (AA 1-420) (Homo sapiens, UniProt P49841); experiment: GSK-3 inhibition assay, coupled enzyme system; settings: 20 μM ATP, 300 μM peptide, 20 nM GSK-3b, 30° C.; read-out: Ki values (GSK3)
Sequence of GSK-3β, (AA 1-420) (P49841 whole entry, the tested form may be a part): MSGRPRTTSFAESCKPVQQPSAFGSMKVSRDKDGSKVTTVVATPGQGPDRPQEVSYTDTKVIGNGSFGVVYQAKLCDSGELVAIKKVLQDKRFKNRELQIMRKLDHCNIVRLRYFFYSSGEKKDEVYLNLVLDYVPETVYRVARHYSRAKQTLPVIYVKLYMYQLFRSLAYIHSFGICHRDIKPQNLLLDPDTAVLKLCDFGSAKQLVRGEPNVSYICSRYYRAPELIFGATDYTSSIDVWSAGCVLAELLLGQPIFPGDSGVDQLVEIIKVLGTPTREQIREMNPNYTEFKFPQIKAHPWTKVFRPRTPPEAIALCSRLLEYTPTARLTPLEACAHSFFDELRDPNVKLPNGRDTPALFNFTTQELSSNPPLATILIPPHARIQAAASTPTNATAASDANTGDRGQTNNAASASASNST
Protocol: Compounds of the present invention were screened for their ability to inhibit GSK-3β, (AA 1-420) activity using a standard coupled enzyme system (Fox et al., Protein Sci. 1998, 7, 2249). Reactions were carried out in a solution containing 100 mM HEPES (pH 7.5), 10 mM MgCl2, 25 mM NaCl, 300 μM NADH, 1 mM DTT and 1.5% DMSO. Final substrate concentrations in the assay were 20 μM ATP (Sigma Chemicals, St Louis, Mo.) and 300 μM peptide (American Peptide, Sunnyvale, Calif.). Reactions were carried out at 30° C. and 20 nM GSK-3b. Final concentrations of the components of the coupled enzyme system were 2.5 mM phosphoenolpyruvate, 300 μM NADH, 30 μg/ml pyruvate kinase and 10 μg/ml lactate dehydrogenase.
An assay stock buffer solution was prepared containing all of the reagents listed above with the exception of ATP and the test compound of the present invention. The assay stock buffer solution (175 μl) was incubated in a 96 well plate with 5 μl of the test compound of the present invention at final concentrations spanning 0.002 μM to 30 μM at 30° C. for 10 min. Typically, a 12 point titration was conducted by preparing serial dilutions (from 10 mM compound stocks) with DMSO of the test compounds of the present invention in daughter plates. The reaction was initiated by the addition of 20 μl of ATP (final concentration 20 μM). Rates of reaction were obtained using a Molecular Devices Spectramax plate reader (Sunnyvale, Calif.) over 10 min at 30° C. The Ki values were determined from the rate data as a function of inhibitor concentration.

JAK3 = molecular target: T1, JAK3 (Homo sapiens, UniProt P52333); experiment: JAK3 inhibition assay (ELISA, Poly (Glu, Ala, Tyr) coated plates); settings: 2 mM ATP, 60 minutes at 30° C.
T1 sequence (P52333 1-1124): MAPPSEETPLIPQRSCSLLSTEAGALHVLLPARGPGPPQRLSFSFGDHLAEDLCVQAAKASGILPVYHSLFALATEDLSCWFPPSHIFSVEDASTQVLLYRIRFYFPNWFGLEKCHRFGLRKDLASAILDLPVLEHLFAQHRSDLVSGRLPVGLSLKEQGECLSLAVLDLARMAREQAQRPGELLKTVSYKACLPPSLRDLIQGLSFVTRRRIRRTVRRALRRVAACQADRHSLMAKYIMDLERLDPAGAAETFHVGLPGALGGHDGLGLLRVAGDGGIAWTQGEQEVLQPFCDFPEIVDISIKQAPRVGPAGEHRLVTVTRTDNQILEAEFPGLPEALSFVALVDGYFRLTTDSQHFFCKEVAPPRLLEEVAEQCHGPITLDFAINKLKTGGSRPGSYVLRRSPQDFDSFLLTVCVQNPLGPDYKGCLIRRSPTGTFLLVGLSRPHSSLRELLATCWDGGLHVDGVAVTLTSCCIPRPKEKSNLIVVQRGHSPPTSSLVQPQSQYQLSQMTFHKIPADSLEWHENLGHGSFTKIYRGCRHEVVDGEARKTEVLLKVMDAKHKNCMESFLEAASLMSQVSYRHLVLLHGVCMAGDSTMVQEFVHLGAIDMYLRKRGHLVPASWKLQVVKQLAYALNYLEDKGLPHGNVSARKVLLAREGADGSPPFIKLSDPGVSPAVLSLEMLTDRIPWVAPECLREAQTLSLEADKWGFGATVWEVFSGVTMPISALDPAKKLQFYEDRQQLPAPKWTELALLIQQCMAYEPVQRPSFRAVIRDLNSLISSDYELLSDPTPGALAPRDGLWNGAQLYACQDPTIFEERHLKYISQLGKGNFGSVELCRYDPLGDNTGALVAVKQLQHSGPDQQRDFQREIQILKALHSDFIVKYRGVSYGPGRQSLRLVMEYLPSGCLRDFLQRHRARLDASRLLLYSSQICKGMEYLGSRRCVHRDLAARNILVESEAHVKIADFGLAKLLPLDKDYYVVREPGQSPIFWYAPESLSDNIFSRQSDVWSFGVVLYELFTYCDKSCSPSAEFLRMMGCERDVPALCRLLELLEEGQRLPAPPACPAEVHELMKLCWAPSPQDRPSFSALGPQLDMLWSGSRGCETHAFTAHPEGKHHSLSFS
Protocol: Compound inhibition of JAK3 was assayed by the method described by G. R. Brown, et al., Bioorg. Med. Chem. Lett. 2000, vol. 10, pp 575-579 in the following manner. Into Maxisorb plates, previously coated at 4° C. with Poly (Glu, Ala, Tyr) 6:3:1 then washed with phosphate buffered saline 0.05% and Tween (PBST), was added 2 mM ATP, 5 mM MgCl2, and a solution of compound in DMSO. The reaction was started with JAK enzyme and the plates incubated for 60 minutes at 30° C. The plates were then washed with PBST, […] HRP-Conjugated 4G10 antibody was added, and the plate incubated for 90 minutes at 30° C. The plate was again washed with PBST, […] TMB solution is added, and the plates were incubated for another 30 minutes at 30° C. Sulfuric acid ([…] of 1M) was added to stop the reaction and the plate is read at 450 nm to obtain the optical densities for analysis to determine IC50 values.

c-KIT = molecular target: T2, c-KIT (Homo sapiens, UniProt P10721); experiment: Inhibition of c-KIT, radiometric filter-binding assay; settings: 700 μM ATP, 0.5 mg/mL pE4Y, room temperature
T2 construct: 0.02% BSA and 25 nM c-KIT
T2 sequence (P10721 26-976): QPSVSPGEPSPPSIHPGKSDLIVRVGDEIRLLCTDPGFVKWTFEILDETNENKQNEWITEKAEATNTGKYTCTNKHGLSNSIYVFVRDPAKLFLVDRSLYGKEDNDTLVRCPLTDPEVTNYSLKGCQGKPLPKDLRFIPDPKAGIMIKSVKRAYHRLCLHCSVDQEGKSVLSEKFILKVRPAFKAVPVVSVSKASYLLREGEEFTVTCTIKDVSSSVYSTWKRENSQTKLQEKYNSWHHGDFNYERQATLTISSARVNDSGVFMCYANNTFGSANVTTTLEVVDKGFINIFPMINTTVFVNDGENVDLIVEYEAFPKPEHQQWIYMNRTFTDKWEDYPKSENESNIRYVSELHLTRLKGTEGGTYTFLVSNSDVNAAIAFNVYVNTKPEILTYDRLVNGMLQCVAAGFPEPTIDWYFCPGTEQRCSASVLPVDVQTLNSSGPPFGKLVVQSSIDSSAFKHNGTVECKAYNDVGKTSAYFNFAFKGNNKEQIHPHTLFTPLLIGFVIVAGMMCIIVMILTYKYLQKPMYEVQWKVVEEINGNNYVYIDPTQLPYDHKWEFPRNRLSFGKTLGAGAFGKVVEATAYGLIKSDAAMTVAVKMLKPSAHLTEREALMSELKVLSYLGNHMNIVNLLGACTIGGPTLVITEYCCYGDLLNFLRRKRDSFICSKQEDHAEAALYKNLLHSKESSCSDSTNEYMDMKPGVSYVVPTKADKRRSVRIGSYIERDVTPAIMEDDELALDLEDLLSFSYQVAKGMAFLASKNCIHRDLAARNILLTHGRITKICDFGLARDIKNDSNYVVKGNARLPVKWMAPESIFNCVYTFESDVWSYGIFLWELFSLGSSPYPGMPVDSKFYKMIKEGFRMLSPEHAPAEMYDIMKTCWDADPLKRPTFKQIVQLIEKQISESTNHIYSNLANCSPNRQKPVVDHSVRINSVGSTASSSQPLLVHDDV
Protocol: Compounds are screened for their ability to inhibit c-KIT activity using a radiometric filter-binding assay. This assay monitors the ^33P incorporation into a substrate poly(Glu, Tyr) 4:1 (pE4Y). Reactions are carried out in a solution containing 100 mM HEPES (pH 7.5), 10 mM MgCl2, 25 mM NaCl, 1 mM DTT, 0.01% BSA and 2.5% DMSO. Final substrate concentrations in the assay were 700 μM ATP and 0.5 mg/mL pE4Y (both from Sigma Chemicals, St Louis, Mo.). The final concentration of compounds is generally between 0.01 and 5 μM. Typically, a 12-point titration is conducted by preparing serial dilutions from 10 mM DMSO stock of test compound. Reactions were carried out at room temperature.
Two assay solutions are prepared. Solution 1 contains 100 mM HEPES (pH 7.5), 10 mM MgCl2, 25 mM NaCl, 1 mg/ml pE4Y and 1.4 mM ATP(containing 0.5 μCi of [γ-^33P]ATP for each reaction). Solution 2 contains 100 mM HEPES (pH 7.5), 10 mM MgCl2, 25 mM NaCl, 2 mM DTT, 0.02% BSA and 25 nM c-KIT. The assay is run on a 96 well plate by mixing 33 μL of Solution1 and 1.65 μL of the test compounds. The reaction is initiated with 33 μL of Solution2. After incubation for 20 minutes at room temperature, the reaction was stopped with 50 μL of 10% TCA containing 0.2 mM of ATP. All of the reaction volume is then transferred to a filter plate and washed with 5% TCA by a Harvester9600 from TOMTEC (Hamden, Conn.). The amount of ^33P incorporation into pE4y is analyzed by a Packard TopCount Microplate Scintillation Counter (Meriden, Conn.). The data is fitted using Prism software to get an IC50 or Ki.

Compound	Ki (SYK) [nM]	Ki (c-Met) [nM]	Ki (GSK-3β, (AA 1-420)) [nM]	Ki (JAK3) [nM]	Ki (c-KIT) [nM]
Fc1cccc(-c2cnoc2-c2c[nH]c3ccccc23)c1F [Compound 29, 3-[4-(2,3-Difluoro-phenyl)-isoxazol-5-yl]-1H-indole]	1000 to 12500	1000 to 12500	1000 to 12500		
CN1CCN(c2ccc(-c3cnc4[nH]cc(-c5nncn5-c5cccc(F)c5F)c4c3)cc2N)CC1 [Compound 129, 5-{3-[4-(2,3-Difluoro-phenyl)-4H-[1,2,4]triazol-3-yl]-1H-pyrrolo[2,3-b]pyridin-5-yl}-2-(4-methyl-piperazin-1-yl)-phenylamine]		< 200		200 to 1000	< 200
CN(C)c1ccc(-c2cnc3[nH]cc(-c4nncn4-c4cccc(F)c4F)c3c2)cc1N [Compound 130, 4-{3-[4-(2,3-Difluoro-phenyl)-4H-[1,2,4]triazol-3-yl]-1H-pyrrolo[2,3-b]pyridin-5-yl}-N^1,N^1-dimethyl-benzene-1,2-diamine]		< 200		200 to 1000	< 200
CN(C)c1ccc(-c2cnc3[nH]cc(-c4nncn4-c4cccc(F)c4F)c3c2)cc1[N+](=O)[O-] [Compound 131, (4-{3-[4-(2,3-Difluoro-phenyl)-4H-[1,2,4]triazol-3-yl]-1H-pyrrolo[2,3-b]pyridin-5-yl}-2-nitro-phenyl)-dimethyl-amine]		< 200		1000 to 12500	< 200
